Entries after “also recorded” stand apart in the source; their conditions may differ.
What was measured:
[1] = target: T1, PA2652-LBD (Pseudomonas aeruginosa, UniProt Q9I0I6); type: binding, Pseudomonas aeruginosa PAO1; settings: DSF screening as described in text; 2 °C threshold for significant hits
T1 construct: The DNA fragment encoding the LBD of PA2652 (Lys^34–Thr^205) was amplified; His-tag (vector-encoded by pET28b(+) via NdeI site); made in house; host or cells: Escherichia coli BL21 (DE3)
Excerpt: To identify ligands that may bind to the LBD of PA2652, we conducted Differential Scanning Fluorimetry (DSF) based high throughput ligand screening assays as described previously[37],[38]. DSF analyses permit the determination of melting temperature (Tm) values, which corresponds to the temperature at which half the protein is in its native conformation whereas the remaining half has undergone thermal unfolding. Since ligand binding typically enhances the thermal stability of proteins, increases in the Tm in the presence of ligands may be indicative of specific binding. We screened 450 different compounds available in five different ligand arrays from Biolog (Supplementary Fig. S3). The screened collection included different carbon and nitrogen sources, phosphorous and sulfurous compounds as well as different nutrient supplements.
Thermal shift assays were performed on a MyIQ2 Real-Time PCR instrument (BioRad). Ligands from the different compound arrays (Biolog, Hayward, CA, USA; see Supplementary Fig. S3) were dissolved in 50 μl of MilliQ water, which, according to the manufacturer, corresponds to a concentration of 10–20 mM. Screening was performed using 96 wells plates. Each well contained 20 μM of protein dialyzed into TNG buffer (20 mM Tris/HCl, 150 mM NaCl, 10% (v/v) glycerol, pH 6.7), 2.5 μl of the resuspended compounds and SYPRO Orange (Life Technologies) at 5× concentration. In a single well (ligand free protein) the compound was substituted by water. Samples were heated from 23 °C to 85 °C at a scan rate of 1 °C/min. The protein unfolding curves were obtained by following the changes in SYPRO Orange fluorescence. Melting temperatures were determined using the first derivative values from the raw fluorescence data.

[2] = target: T1, PA2652-LBD; test: biochemical; type: binding, Pseudomonas aeruginosa PAO1
Protocol: To unambiguously determine ligand binding, we conducted Isothermal Titration Calorimetry (ITC)[40] binding studies with the purified protein.
(§1) Experiments were conducted on a VP-microcalorimeter (Microcal, Amherst, MA, USA) at 20 °C. PA2652-LBD was dialyzed overnight against TNG buffer, adjusted to a concentration of 20–35 μM and placed into the sample cell of the instrument. The protein was titrated by the injection of 9.6–14.4 μl aliquots of 1–20 mM ligand solutions that were prepared in TNG buffer (20 mM Tris/HCl, 150 mM NaCl, 10% (v/v) glycerol, pH 6.8) immediately before use. The mean enthalpies measured from the injection of ligands into buffer were subtracted from raw titration data prior to data analysis with the MicroCal version of ORIGIN. Data were fitted with the “One binding site model”.

[3] = target: T1, PA2652-LBD; test: ITC titration with L-malic acid in absence and presence of antagonists (competition); type: binding, Pseudomonas aeruginosa PAO1
Excerpt: In order to understand the mechanistic role of these antagonistics in the chemotaxis behaviour of P. aeruginosa, we first carried out ITC binding studies. In these assays, we measured the affinity of L-malic acid for PA2652-LBD in the presence of different concentrations of citraconic and D,L-methylsuccinic acids. […] Considering the close structural similarity of antagonists and L-malic acid (Fig. 3) it is likely that these compounds compete for binding at the same site at PA2652.
Figure 7 Attractants and antagonists compete for binding at PA2652-LBD in vitro. Isothermal titration calorimetry analysis of the binding of L-malic acid to PA2652-LBD in the absence and presence of 2 or 20 mM of the antagonists, citraconic and D,L-methylsuccinic acids. Upper panel: Titration raw data for the injection of 9.6 μl aliquots of 1 mM of L-malic acid into 20 μM of protein in the absence and presence of antagonists (present both in the injector syringe and sample cell). Lower panel: Integrated, dilution heat corrected and concentration normalized peak areas fitted with the “One binding site” model of ORIGIN. The apparent binding constants are listed in Supplementary Table S2.
as §1

[4] = test system: Pseudomonas aeruginosa PAO1 cheA2 mutant; test: Capillary chemotaxis assay, cheA2 mutant; type: cell-based; settings: 10 mM L-malic acid
Protocol: A recent bioinformatic study has predicted that PA2652 signals through the che pathway. To verify this prediction we conducted chemotaxis assays to L-malic acid using the wt strain as well as mutants in cheA1 and cheA2, encoding respectively the histidine kinases of the che and che2 pathways.
Overnight cultures of P. aeruginosa strains were diluted to an OD660 of 0.05 in MS medium (30 mM Na2HPO4, 20 mM KH2PO4, 25 mM NH4NO3, 1 mM MgSO4) supplemented with 6 mg l^−1 Fe-citrate, trace elements[81] and 15 mM glucose as carbon source, and grown at 37 °C with orbital shaking (200 rpm). At an OD660 of 0.4 ([…]) cultures were centrifuged at 1,700 × g for 5 min and the resulting pellet was washed twice with chemotaxis buffer (50 mM potassium phosphate, […], 0.05% (v/v) glycerol, pH 7.0). Subsequently, the cells were resuspended in the same buffer, adjusted to an OD660 of 0.1 and 230 µl aliquots of the bacterial cultures were placed into 96-well plates. For the quantitative assays, one-microliter capillary tubes (Microcaps, Drummond Scientific, Ref. P1424) were heat-sealed at one end and filled with either the chemotaxis buffer (negative control) or chemotaxis buffer containing the chemoeffectors to test. The capillaries were immersed into the bacterial suspensions at its open end. […] The number of colony forming units was determined after overnight incubation. […]

[5] = L-malic acid titration in presence of 2 mM D,L-methylsuccinic acid
[6] = L-malic acid titration in presence of 2 mM citraconic acid
[7] = L-malic acid titration in presence of 20 mM D,L-methylsuccinic acid
[8] = L-malic acid titration in presence of 20 mM citraconic acid
[9] = L-malic acid titration, no antagonist

T1 sequence (Q9I0I6 34-205): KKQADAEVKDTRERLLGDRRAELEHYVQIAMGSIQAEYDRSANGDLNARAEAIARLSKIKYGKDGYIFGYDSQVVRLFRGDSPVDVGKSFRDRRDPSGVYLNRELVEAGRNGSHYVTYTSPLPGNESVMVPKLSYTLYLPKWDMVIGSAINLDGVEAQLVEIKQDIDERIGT

**Q.** How did the Tm increases [1] turn out when `O=C(O)C[C@H](O)C(=O)O` [L-malic acid] was run?
**A.** more than 2 °C

**Q.** What about the Kd [2] of the same compound?
**A.** 23 ± 1 µM

**Q.** And the “TΔS (entropy change of binding)” value ([2]; ITC)?
**A.** 2.1 ± 1 kcal/mol

**Q.** And the “Binding in ITC” value ([2]; YES/NO)?
**A.** YES

**Q.** What about the Kd [3] of the same compound?
**A.** 23 ± 1 µM

**Q.** And the “n (apparent)” value [3, 5]?
**A.** 0.6 ± 0.1

**Q.** What about the “∆H (apparent)” value [3, 5] of the same compound?
**A.** -6.7 ± 1 kcal/mol

**Q.** And the “n (apparent)” value [3, 6]?
**A.** 0.9 ± 0.2

**Q.** What about the “∆H (apparent)” value [3, 6] of the same compound?
**A.** -5.1 ± 1 kcal/mol

**Q.** And the “n (apparent)” value [3, 7]?
**A.** 1.1 ± 0.9

**Q.** And the “∆H (apparent)” value [3, 7]?
**A.** -2.6 ± 2 kcal/mol

**Q.** What about the “n (apparent)” value [3, 8] of the same compound?
**A.** 1.1 ± 1

**Q.** And the “∆H (apparent)” value [3, 8]?
**A.** -3.3 ± 5 kcal/mol

**Q.** What about the “n (apparent)” value [3, 9] of the same compound?
**A.** 1 ± 0.1

**Q.** What about the “∆H (apparent)” value [3, 9] of the same compound?
**A.** -4.1 ± 0.6 kcal/mol

**Q.** And the “Change of apparent affinity of L-malic acid” value ([3]; antagonists increased to 20 mM)?
**A.** further reduction in the apparent affinity

**Q.** And the “Change of apparent affinity of L-malic acid” value ([3]; in the presence of 2 mM antagonists (citraconic or D,L-methylsuccinic acid))?
**A.** decreased approximately by a factor of two

**Q.** What about the “Chemotaxis in cheA2 mutant” value [4] of the same compound?
**A.** almost identical to that of wt strain; also recorded: indistinguishable from that of the wt
